Reference: ChEMBL document CHEMBL3390836, “Mannich- and LedererManasse-based analogues of the natural product S-(+)-curcuphenol as cancer proliferation and migration inhibitors” (Medchemcomm, 2012)

Columns and labels:
Type in all cases: functional
BT-549 = assay: Cytotoxicity against human BT549 cells assessed as cell growth at 10 uM after 48 hrs by SRB assay relative to control; settings: BT-549, 48 h, read-out: Activity
MOLT-4 = assay: Cytotoxicity against human MOLT4 cells assessed as cell growth at 10 uM after 48 hrs by SRB assay relative to control; settings: MOLT-4, 48 h, read-out: Activity
[1] = Cytotoxicity against human OVCAR3 cells assessed as cell growth at 10 uM after 48 hrs by SRB assay relative to control; settings: OVCAR-3, 48 h, read-out: Activity
MDA-MB-231 = assay: Cytotoxicity against human MDA-MB-231 cells assessed as cell growth at 10 uM after 48 hrs by SRB assay relative to control; settings: MDA-MB-231, 48 h, read-out: Activity
U-251 = assay: Cytotoxicity against human U251 cells assessed as cell growth at 10 uM after 48 hrs by SRB assay relative to control; settings: U-251, 48 h, read-out: Activity
SF-268 = assay: Cytotoxicity against human SF268 cells assessed as cell growth at 10 uM after 48 hrs by SRB assay relative to control; settings: SF-268, 48 h, read-out: Activity
MDA-MB-435 = assay: Cytotoxicity against human MDA-MB-435 cells assessed as cell growth at 10 uM after 48 hrs by SRB assay relative to control; settings: MDA-MB-435, 48 h, read-out: Activity
HT-29 = assay: Cytotoxicity against human HT-29 cells assessed as cell growth at 10 uM after 48 hrs by SRB assay relative to control; settings: HT-29, 48 h, read-out: Activity
SR = assay: Cytotoxicity against human SR cells assessed as cell growth at 10 uM after 48 hrs by SRB assay relative to control; settings: read-out: Activity
HCC 2998 = assay: Cytotoxicity against human HCC2998 cells assessed as cell growth at 10 uM after 48 hrs by SRB assay relative to control; settings: HCC 2998, 48 h, read-out: Activity
[2] = Cytotoxicity against human Hs 578T cells assessed as cell growth at 10 uM after 48 hrs by SRB assay relative to control; settings: read-out: Activity
[3] = Cytotoxicity against human OVCAR4 cells assessed as cell growth at 10 uM after 48 hrs by SRB assay relative to control; settings: OVCAR-4, 48 h, read-out: Activity
NCI-H322M = assay: Cytotoxicity against human NCI-H322M cells assessed as cell growth at 10 uM after 48 hrs by SRB assay relative to control; settings: read-out: Activity
NCI-H226 = assay: Cytotoxicity against human NCI-H226 cells assessed as cell growth at 10 uM after 48 hrs by SRB assay relative to control; settings: NCI-H226, 48 h, read-out: Activity
T47D = assay: Cytotoxicity against human T47D cells assessed as cell growth at 10 uM after 48 hrs by SRB assay relative to control; settings: read-out: Activity
[4] = Cytotoxicity against human NCI-ADR-RES cells assessed as cell growth at 10 uM after 48 hrs by SRB assay relative to control; settings: read-out: Activity
TK-10 = assay: Cytotoxicity against human TK10 cells assessed as cell growth at 10 uM after 48 hrs by SRB assay relative to control; settings: TK-10, 48 h, read-out: Activity
DU-145 = assay: Cytotoxicity against human DU145 cells assessed as cell growth at 10 uM after 48 hrs by SRB assay relative to control; settings: DU-145, 48 h, read-out: Activity
HOP-62 = assay: Cytotoxicity against human HOP62 cells assessed as cell growth at 10 uM after 48 hrs by SRB assay relative to control; settings: HOP-62, 48 h, read-out: Activity
NCI-H522 = assay: Cytotoxicity against human NCI-H522 cells assessed as cell growth at 10 uM after 48 hrs by SRB assay relative to control; settings: NCI-H522, 48 h, read-out: Activity
COLO 205 = assay: Cytotoxicity against human COLO205 cells assessed as cell growth at 10 uM after 48 hrs by SRB assay relative to control; settings: COLO 205, 48 h, read-out: Activity
SN12C = assay: Cytotoxicity against human SN12C cells assessed as cell growth at 10 uM after 48 hrs by SRB assay relative to control; settings: read-out: Activity
M14 = assay: Cytotoxicity against human M14 cells assessed as cell growth at 10 uM after 48 hrs by SRB assay relative to control; settings: M14, 48 h, read-out: Activity
SK-MEL-2 = assay: Cytotoxicity against human SK-MEL-2 cells assessed as cell growth at 10 uM after 48 hrs by SRB assay relative to control; settings: SK-MEL-2, 48 h, read-out: Activity
RXF 393 = assay: Cytotoxicity against human RXF393 cells assessed as cell growth at 10 uM after 48 hrs by SRB assay relative to control; settings: RXF 393, 48 h, read-out: Activity
Malme-3M = assay: Cytotoxicity against human MALME-3M cells assessed as cell growth at 10 uM after 48 hrs by SRB assay relative to control; settings: read-out: Activity
HOP-92 = assay: Cytotoxicity against human HOP92 cells assessed as cell growth at 10 uM after 48 hrs by SRB assay relative to control; settings: HOP-92, 48 h, read-out: Activity

## CC(C)=CCC[C@H](C)c1ccc(C)c(CNCCCCC(=O)O)c1O
BT-549
  growth at 10 µM: 111%
MOLT-4
  growth at 10 µM: 95.1%
[1]
  growth at 10 µM: 108%
MDA-MB-231
  growth at 10 µM: 97.6%
U-251
  growth at 10 µM: 98.1%
SF-268
  growth at 10 µM: 105%
MDA-MB-435
  growth at 10 µM: 96.1%
HT-29
  growth at 10 µM: 101%
SR
  growth at 10 µM: 85%
HCC 2998
  growth at 10 µM: 101%
[2]
  growth at 10 µM: 102%
[3]
  growth at 10 µM: 93.3%
NCI-H322M
  growth at 10 µM: 111%
NCI-H226
  growth at 10 µM: 91.1%
T47D
  growth at 10 µM: 113%
[4]
  growth at 10 µM: 103%
TK-10
  growth at 10 µM: 105%
DU-145
  growth at 10 µM: 110%
HOP-62
  growth at 10 µM: 106%
NCI-H522
  growth at 10 µM: 95.4%
COLO 205
  growth at 10 µM: 119%
SN12C
  growth at 10 µM: 102%
M14
  growth at 10 µM: 113%
SK-MEL-2
  growth at 10 µM: 104%
RXF 393
  growth at 10 µM: 121%

## CC(C)=CCC[C@H](C)c1ccc(C)c(CO)c1O
Malme-3M
  growth at 10 µM: 110%
BT-549
  growth at 10 µM: 91.8%
MOLT-4
  growth at 10 µM: 91.4%
[1]
  growth at 10 µM: 91.1%
MDA-MB-231
  growth at 10 µM: 109%
U-251
  growth at 10 µM: 98.8%
MDA-MB-435
  growth at 10 µM: 108%
HT-29
  growth at 10 µM: 103%
HCC 2998
  growth at 10 µM: 102%
[2]
  growth at 10 µM: 104%
[3]
  growth at 10 µM: 90.7%
NCI-H322M
  growth at 10 µM: 109%
NCI-H226
  growth at 10 µM: 112%
T47D
  growth at 10 µM: 72.2%
[4]
  growth at 10 µM: 97.1%
TK-10
  growth at 10 µM: 103%
HOP-62
  growth at 10 µM: 99.8%
NCI-H522
  growth at 10 µM: 87.1%
COLO 205
  growth at 10 µM: 125%
HOP-92
  growth at 10 µM: 65.2%
SN12C
  growth at 10 µM: 91.3%
M14
  growth at 10 µM: 103%
SK-MEL-2
  growth at 10 µM: 102%
RXF 393
  growth at 10 µM: 92.3%

## CC(C)=CCC[C@H](C)c1ccc(C)c2c1OCN(CCO)C2
Malme-3M
  growth at 10 µM: 89.5%
BT-549
  growth at 10 µM: 95.8%
MOLT-4
  growth at 10 µM: 101%
[1]
  growth at 10 µM: 86.1%
MDA-MB-231
  growth at 10 µM: 88.8%
U-251
  growth at 10 µM: 85.1%
MDA-MB-435
  growth at 10 µM: 101%
HT-29
  growth at 10 µM: 68.7%
HCC 2998
  growth at 10 µM: 84.4%
[2]
  growth at 10 µM: 75.6%
[3]
  growth at 10 µM: 79%
NCI-H322M
  growth at 10 µM: 104%
NCI-H226
  growth at 10 µM: 91.2%
T47D
  growth at 10 µM: 70%
[4]
  growth at 10 µM: 73.5%
TK-10
  growth at 10 µM: 88.4%
HOP-62
  growth at 10 µM: 80.4%
NCI-H522
  growth at 10 µM: 78.1%
COLO 205
  growth at 10 µM: 119%
HOP-92
  growth at 10 µM: 4.21%
SN12C
  growth at 10 µM: 79.6%
M14
  growth at 10 µM: 90.9%
SK-MEL-2
  growth at 10 µM: 99.2%
RXF 393
  growth at 10 µM: 52.4%

## CC(C)=CCC[C@H](C)c1ccc(C)c(CNCCO)c1O
MOLT-4
  growth at 10 µM: 87.5%
[1]
  growth at 10 µM: 95.7%
MDA-MB-231
  growth at 10 µM: 86.1%
U-251
  growth at 10 µM: 87.2%
SF-268
  growth at 10 µM: 97.8%
MDA-MB-435
  growth at 10 µM: 95.8%
HT-29
  growth at 10 µM: 90.6%
SR
  growth at 10 µM: 75.7%
HCC 2998
  growth at 10 µM: 76.9%
[2]
  growth at 10 µM: 83.1%
[3]
  growth at 10 µM: 108%
NCI-H322M
  growth at 10 µM: 100%
NCI-H226
  growth at 10 µM: 90%
T47D
  growth at 10 µM: 90.2%
[4]
  growth at 10 µM: 88.7%
TK-10
  growth at 10 µM: 81%
DU-145
  growth at 10 µM: 98.3%
HOP-62
  growth at 10 µM: 81%
NCI-H522
  growth at 10 µM: 81.4%
COLO 205
  growth at 10 µM: 105%
SN12C
  growth at 10 µM: 91.5%
M14
  growth at 10 µM: 101%
SK-MEL-2
  growth at 10 µM: 93%
RXF 393
  growth at 10 µM: 79.2%

## CC(C)=CCC[C@H](C)c1ccc(C)cc1O
Malme-3M
  growth at 10 µM: 115%
BT-549
  growth at 10 µM: 114%
MOLT-4
  growth at 10 µM: 102%
[1]
  growth at 10 µM: 96.3%
MDA-MB-231
  growth at 10 µM: 97.1%
U-251
  growth at 10 µM: 103%
MDA-MB-435
  growth at 10 µM: 100%
HT-29
  growth at 10 µM: 103%
HCC 2998
  growth at 10 µM: 99.5%
[2]
  growth at 10 µM: 114%
[3]
  growth at 10 µM: 100%
NCI-H322M
  growth at 10 µM: 113%
NCI-H226
  growth at 10 µM: 107%
T47D
  growth at 10 µM: 111%
[4]
  growth at 10 µM: 99%
TK-10
  growth at 10 µM: 110%
HOP-62
  growth at 10 µM: 102%
NCI-H522
  growth at 10 µM: 101%
COLO 205
  growth at 10 µM: 117%
HOP-92
  growth at 10 µM: 85%
SN12C
  growth at 10 µM: 105%
M14
  growth at 10 µM: 106%
SK-MEL-2
  growth at 10 µM: 147%
RXF 393
  growth at 10 µM: 103%
